Measurements taken from patent publication US8946282B2, “Indolin-2-one derivatives as protein kinase inhibitors” (Annji Pharmaceutical Co., Ltd., priority 2012, dated 2015).

Columns and labels:
aurora B = aurora B (Homo sapiens, UniProt Q96GD4); assay: radioisotope-based P81 filter-binding assay, aurora B kinase; assay type: biochemical; conditions: averaged from two independent dose-response curves; read-out: Enzyme assay IC50 Aur B
Experimental: (§1) Compounds of formula (I)-(IV) were evaluated for abilities in inhibiting protein kinases aurora B and FLT-3 activity using radioisotope-based P81 filter-binding assay (Table 1).

[1] = tested on: A549 human lung carcinoma cells; assay: anti-proliferation, SRB colorimetric assay, A549; assay type: cell-based; conditions: concentration required for 50% growth inhibition, read-out: IC50 (μM, mean ± S.D.)
[2] = tested on: MV4-11 human acute myelomonocytic leukemia cells; assay: anti-proliferation, SRB colorimetric assay, MV4-11; assay type: cell-based; conditions: concentration required for 50% growth inhibition
Experimental: HCT116 human colorectal carcinoma cells (Table 3), HepG2 human hepatocellular carcinoma cells (Table 4), and MV4-11 human acute myelomonocytic leukemia cells (Table 5). Cells were treated with the test compound and the concentration required for 50% growth inhibition (IC50) determined by sulfomodamine B (SRB) colorimetric assay.

FLT-3 = target: T1, FLT-3 (Homo sapiens, UniProt P36888); assay: radioisotope-based P81 filter-binding assay, FLT-3 kinase; assay type: biochemical; conditions: averaged from two independent dose-response curves; read-out: Enzyme assay IC50 FLT-3
T1 sequence (P36888 27-993): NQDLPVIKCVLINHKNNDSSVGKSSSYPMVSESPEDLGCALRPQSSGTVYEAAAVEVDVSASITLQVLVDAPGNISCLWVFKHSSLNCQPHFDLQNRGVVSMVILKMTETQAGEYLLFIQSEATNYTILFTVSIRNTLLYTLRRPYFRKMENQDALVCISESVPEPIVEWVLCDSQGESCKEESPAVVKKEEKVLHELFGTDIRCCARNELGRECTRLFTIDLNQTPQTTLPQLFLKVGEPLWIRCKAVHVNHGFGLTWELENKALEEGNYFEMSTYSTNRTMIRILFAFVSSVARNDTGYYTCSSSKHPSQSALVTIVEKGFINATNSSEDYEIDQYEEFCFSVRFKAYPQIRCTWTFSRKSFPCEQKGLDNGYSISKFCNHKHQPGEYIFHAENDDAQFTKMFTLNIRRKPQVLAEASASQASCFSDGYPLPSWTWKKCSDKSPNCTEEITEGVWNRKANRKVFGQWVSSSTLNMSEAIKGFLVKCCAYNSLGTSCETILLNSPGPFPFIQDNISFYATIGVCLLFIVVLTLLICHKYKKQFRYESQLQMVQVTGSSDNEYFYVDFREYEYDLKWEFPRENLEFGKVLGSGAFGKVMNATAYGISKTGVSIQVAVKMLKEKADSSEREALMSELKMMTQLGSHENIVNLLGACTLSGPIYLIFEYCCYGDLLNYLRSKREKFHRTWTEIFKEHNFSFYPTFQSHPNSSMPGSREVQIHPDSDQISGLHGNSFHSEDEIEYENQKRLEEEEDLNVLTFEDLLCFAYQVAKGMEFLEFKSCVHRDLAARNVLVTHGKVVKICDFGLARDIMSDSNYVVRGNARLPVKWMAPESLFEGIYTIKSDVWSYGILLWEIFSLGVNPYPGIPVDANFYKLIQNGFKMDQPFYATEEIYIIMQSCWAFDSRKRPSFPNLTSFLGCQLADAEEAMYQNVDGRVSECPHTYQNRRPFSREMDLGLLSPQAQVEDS
Experimental: as §1

[3] = tested on: HepG2 human hepatocellular carcinoma cells; assay: anti-proliferation, SRB colorimetric assay, HepG2; assay type: cell-based; conditions: concentration required for 50% growth inhibition, read-out: IC50 (μM, mean ± S.D.)
Text: HCT116 human colorectal carcinoma cells (Table 3), HepG2 human hepatocellular carcinoma cells (Table 4), and MV4-11 human acute myelomonocytic leukemia cells (Table 5).

Sequence of aurora B (Q96GD4 whole entry): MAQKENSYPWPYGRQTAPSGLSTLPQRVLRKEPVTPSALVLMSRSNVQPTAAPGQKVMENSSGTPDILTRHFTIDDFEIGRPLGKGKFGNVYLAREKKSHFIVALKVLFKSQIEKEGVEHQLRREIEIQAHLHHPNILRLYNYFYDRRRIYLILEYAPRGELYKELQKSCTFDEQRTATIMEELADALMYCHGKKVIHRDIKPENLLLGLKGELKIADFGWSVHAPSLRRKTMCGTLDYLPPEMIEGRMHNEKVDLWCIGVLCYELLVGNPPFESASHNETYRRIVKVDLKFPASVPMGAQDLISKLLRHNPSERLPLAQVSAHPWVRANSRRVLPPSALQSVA

Structure (SMILES)	IC50 (aurora B) [nM]	melting point	IC50 [1] [µM]	IC50 [2] [nM]	IC50 (FLT-3) [nM]	IC50 [3] [µM]
O=C1Nc2cc(NC(=O)c3c[nH]cc(-c4ccc(F)cc4)c3=O)ccc2/C1=C/c1ccc[nH]1 [D129, (Z)—N-(3-((1H-pyrrol-2-yl)methylene)-2-oxoindolin-6-yl)-5-(4-fluorophenyl)-4-oxo-1,4-dihydropyridine-3-carboxamide]	128	> 300 °C	0.45 ± 0.07	1.83	38.1	–
Cc1cc(C)c(/C=C2\C(=O)Nc3cc(NC(=O)c4c[nH]cc(-c5ccc(F)cc5)c4=O)ccc32)[nH]1 [D140, (Z)—N-(3-((3,5-dimethyl-1H-pyrrol-2-yl)methylene)-2-oxoindolin-6-yl)-5-(4-fluorophenyl)-4-oxo-1,4-dihydropyridine-3-carboxamide]	179	> 300 °C	–	12.8	86.6	0.56 ± 0.02
CN(C)c1ccc(C(=O)NC(=O)Nc2ccc3c(c2)NC(=O)/C3=C\c2ccc[nH]2)cc1 [D31, (Z)—N-(3-((1H-pyrrol-2-yl)methylene)-2-oxoindolin-6-ylcarbamoyl)-4-(dimethylamino)benzamide]	159	285 to 290 °C (dec.)	–	–	134	0.63 ± 0.02
O=C(NC(=O)c1ccc(C(F)(F)F)cc1)Nc1ccc2c(c1)NC(=O)/C2=C\c1ccc[nH]1 [D27, (Z)—N-(3-((1H-pyrrol-2-yl)methylene)-2-oxoindolin-6-ylcarbamoyl)-4-(trifluoromethyl)benzamide]	40.9	> 300 °C	–	–	> 1000	0.86 ± 0.02
COC(=O)CCc1c(C)[nH]c(/C=C2\C(=O)Nc3cc(NC(=O)c4cccn(-c5ccc(F)cc5)c4=O)ccc32)c1C [D123, (Z)-methyl-3-(5-((6-(1-(4-fluorophenyl)-2-oxo-1,2-dihydropyridine-3-carboxamido)-2-oxoindolin-3-ylidene)methyl)-2,4-dimethyl-1H-pyrrol-3-yl)propanoate]	238	266 to 270 °C	–	1.56	45.2	–
Cc1cc(C)c(/C=C2\C(=O)Nc3cc(NC(=O)c4cccn(-c5ccc(F)cc5)c4=O)ccc32)[nH]1 [D119, (Z)—N-(3-((3,5-dimethyl-1H-pyrrol-2-yl)methylene)-2-oxoindolin-6-yl)-1-(4-fluorophenyl)-2-oxo-1,2-dihydropyridine-3-carboxamide]	> 1000	> 300 °C	–	1.39	8.1	–
COc1ccc(-n2cccc(C(=O)Nc3ccc4c(c3)NC(=O)/C4=C\c3ccc[nH]3)c2=O)cc1 [D106, (Z)—N-(3-((1H-pyrrol-2-yl)methylene)-2-oxoindolin-6-yl)-1-(4-methoxyphenyl)-2-oxo-1,2-dihydropyridine-3-carboxamide]	209	> 300 °C	–	12.6	> 1000	–
O=C1Nc2cc(NC(=O)c3cccn(-c4ccccc4)c3=O)ccc2/C1=C/c1ccc[nH]1 [D105, (Z)—N-(3-((1H-pyrrol-2-yl)methylene)-2-oxoindolin-6-yl)-2-oxo-1-phenyl-1,2-dihydropyridine-3-carboxamide]	87.4	> 300 °C	–	0.13	48.4	–
O=C1Nc2cc(NC(=O)c3cccn(-c4ccc(C(F)(F)F)cc4)c3=O)ccc2/C1=C/c1ccc[nH]1 [D112]	> 1000	> 300 °C	–	2.09	137	–
O=C1Nc2cc(NC(=O)c3c[nH]cc(-c4ccc(F)cc4)c3=O)c(F)cc2/C1=C/c1ccc[nH]1 [D137, (Z)—N-(3-((1H-pyrrol-2-yl)methylene)-5-fluoro-2-oxoindolin-6-yl)-5-(4-fluorophenyl)-4-oxo-1,4-dihydropyridine-3-carboxamide]	237	> 300 °C	–	0.97	37.9	–

The next molecules have a lower IC50 (aurora B) than those just listed; values first:

IC50 (aurora B) [nM]	melting point	IC50 [1] [µM]	IC50 [2] [nM]	IC50 (FLT-3) [nM]	IC50 [3] [µM]	Structure (SMILES)
10.7	270 to 275 °C	–	–	51.6	0.12 ± 0.07	Cc1[nH]c(/C=C2\C(=O)Nc3cc(NC(=O)NC(=O)c4ccc(Cl)c(C(F)(F)F)c4)ccc32)c(C)c1C(=O)O [D36, (Z)-5-((6-(3-(4-chloro-3-(trifluoromethyl)benzoyl)ureido)-2-oxoindolin-3-ylid-ene)methyl)-2,4-dimethyl-1H-pyrrol-3-carboxylic acid]
3.1	> 300 °C	–	–	506	0.65 ± 0.05	Cc1[nH]c(/C=C2\C(=O)Nc3cc(NC(=O)NC(=O)c4ccc(Cl)cc4)ccc32)c(C)c1C(=O)O [D33, (Z)-5-((6-(3-(4-chlorabenzoyl)ureido)-2-oxoindolin-3-ylidene)-methyl)-2,4-dimethyl-1H-pyrrole-3-carboxylic acid]
5.3	290 to 295 °C (dec.)	–	–	> 10000	0.89 ± 0.03	O=C(NC(=O)c1ccccc1)Nc1ccc2c(c1)NC(=O)/C2=C\c1ccc[nH]1 [D24, (Z)—N-(3-((1H-pyrrol-2-yl)methylene)-2-oxoindolin-6-ylcarbamoyl)benzamide]
18.4	290 to 295 °C (dec.)	–	–	> 1000	0.93 ± 0.01	Cc1ccc(C(=O)NC(=O)Nc2ccc3c(c2)NC(=O)/C3=C\c2ccc[nH]2)cc1 [D29, (Z)—N-(3-((1H-pyrrol-2-yl)methylene)-2-oxoindolin-6-ylcarbamoyl)-4-methylbenzamide]
1.6	–	–	–	2.4	0.09 ± 0.04	Cc1[nH]c(/C=C2\C(=O)Nc3cc(NC(=O)NC(=O)c4ccc(Cl)c(C(F)(F)F)c4)ccc32)c(C)c1CCC(=O)O [D37, (Z)-3-(5-((6-(3-(4-chloro-3-(trifluoromethyl)benzoyl)ureido)-2-oxo-indolin-3-ylidene)methyl)-2,4-dimethyl-1H-pyrrol-3-yl)propanoic acid]
6.5	280 to 285 °C (dec.)	–	6.14	676	0.94 ± 0.03	O=C(NC(=O)c1ccc(Cl)cc1)Nc1ccc2c(c1)NC(=O)/C2=C\c1ccc[nH]1 [D25, (Z)—N-(3-((1H-pyrrol-2-yl)methylene)-2-oxoindolin-6-ylcarbonamoyl)-4-chlorobenzamide]
29.8	276 to 281 °C (dec.)	–	–	–	0.86 ± 0.02	COc1cc(OC)cc(C(=O)NC(=O)Nc2ccc3c(c2)NC(=O)/C3=C\c2ccc[nH]2)c1 [D30]
7.7	295 to 300 °C (dec.)	–	1.13	> 1000	0.63 ± 0.04	O=C(NC(=O)c1ccc(Cl)c(Cl)c1)Nc1ccc2c(c1)NC(=O)/C2=C\c1ccc[nH]1 [D26, (Z)—N-(3-((1H-pyrrol-2-yl)methylene)-2-oxoindolin-6-ylcarbamoyl)-3,4-dichlorobenzamide]
38.8	> 300 °C	0.49 ± 0.03	7.18	27.7	–	O=C1Nc2cc(NC(=O)c3c[nH]cc(-c4ccccc4)c3=O)ccc2/C1=C/c1ccc[nH]1 [D127]
10.7	> 300 °C	–	0.23	8.1	–	Cc1[nH]c(/C=C2\C(=O)Nc3cc(NC(=O)c4cccn(-c5ccc(F)cc5)c4=O)ccc32)c(C)c1C(=O)O [D120, (Z)-5-((6-(1-(4-fluorophenyl)-2-oxo-1,2-dihydropyridine-3-carboxamido)-2-oxoindolin-3-ylidene)methyl)-2,4-dimethyl-1H-pyrrole-3-carboxylic acid]
14.9	–	–	6.13	334	0.96 ± 0.03	COc1ccc(C(=O)NC(=O)Nc2ccc3c(c2)NC(=O)/C3=C\c2ccc[nH]2)cc1 [D15]
25	–	0.69 ± 0.05	–	–	–	O=C(CC(=O)Nc1ccc2c(c1)NC(=O)/C2=C\c1ccc[nH]1)Nc1ccc(F)cc1 [D75, (Z)—N^1-(3-((1H-pyrrol-2-yl)methylene)-2-oxoindolin-6-yl)-N^3-(4-fluorophenyl)malonamide]
